Test results published in patent publication US10703746B2, “Mutant IDH1 inhibitors useful for treating cancer” (THE UNITED STATES OF AMERICA, AS REPRESENTED BY THE …, priority 2014, dated 2020).

Legend:
IDH1 R132H = IDH1 R132H (Homo sapiens, UniProt O75874, R132H); assay: IDH1 R132H enzymatic assay (NADPH depletion coupled to diaphorase/resazurin); format: biochemical; conditions: enzymatic inhibition, IDH1 R132H
IDH1 R132C = IDH1 R132C (Homo sapiens, UniProt O75874, R132C); assay: IDH1 R132C enzymatic assay (NADPH depletion coupled to diaphorase/resazurin); format: biochemical; conditions: enzymatic inhibition, IDH1 R132C
Chain of IDH1 R132C (O75874 whole entry R132C): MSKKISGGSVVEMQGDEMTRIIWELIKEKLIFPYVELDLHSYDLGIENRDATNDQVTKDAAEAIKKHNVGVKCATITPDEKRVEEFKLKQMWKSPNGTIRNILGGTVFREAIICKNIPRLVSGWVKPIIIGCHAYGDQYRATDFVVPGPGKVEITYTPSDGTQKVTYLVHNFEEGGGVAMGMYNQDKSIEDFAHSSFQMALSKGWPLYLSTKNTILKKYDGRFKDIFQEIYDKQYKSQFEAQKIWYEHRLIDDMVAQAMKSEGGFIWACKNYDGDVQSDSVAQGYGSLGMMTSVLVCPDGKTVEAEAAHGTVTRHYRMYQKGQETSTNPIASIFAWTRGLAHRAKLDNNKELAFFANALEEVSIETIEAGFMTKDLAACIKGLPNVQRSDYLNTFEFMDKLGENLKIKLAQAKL
In short: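 NADPH depletion, read via diaphorase/resazurin coupling, after adding substrate at 0.6 mM α-KG and 0.012 mM NADPH. Beforehand, 0.00032 mg/mL enzyme sat with compound 30 min at room temperature in pH 6.5 potassium phosphate buffer with MgCl2, glycerol and BSA.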

Chain of IDH1 R132H (O75874 whole entry R132H): as the sequence (O75874 whole entry R132C) above, with C132H counted along it

Row | Compound | IC50 (IDH1 R132H) [nM] | IC50 (IDH1 R132C) [nM]
1 | CC(C)=Cc1c(C(=O)N2CCNCC2)cc(-c2nc(-c3ccc(Cl)cc3)cs2)c(=O)n1-c1cc(F)ccc1Cl [Compound 409] | < 300 | < 300
2 | CCc1cccc(CC)c1-n1c(C=C(C)C)c(C(=O)N2CCNCC2C(=O)O)cc(-c2nc(-c3ccc(Cl)cc3)cs2)c1=O (stereo not shown) [Compound 410] | < 300 | < 300
3 | COc1cccc(CN2CCN(C)CC2)c1-n1c2c(cc(-c3nc(-c4ccc(Cl)cc4)cs3)c1=O)C(=O)CCC2 [Compound 411] | 5000 to 20000 | 5000 to 20000
4 | CCc1cccc(CC)c1-n1c(CC(C)C)c(C(=O)N2CCNCC2)cc(-c2nc(Nc3ccc(Cl)cc3)c(C)s2)c1=O [Compound 412] | 5000 to 20000 | 5000 to 20000
5 | C=Cc1sc(-c2cc(C(=O)N3CCNCC3)c(CC(C)C)n(-c3c(CC)cccc3CC)c2=O)nc1-c1ccc(Cl)cc1 [Compound 413] | 300 to 1000 | < 300
6 | COc1cccc(OC)c1-n1c2c(cc(-c3nc(-c4ccc(Cl)cc4)cs3)c1=O)C(=O)CCC2 [Compound 414] | 1000 to 5000 | 1000 to 5000
7 | CCc1cccc(CC)c1-n1c(C=C(C)C)c(C(=O)N2CCNCC2)cc(-c2ccn(-c3ccc(OC4CC4)cc3)n2)c1=O [Compound 415] | < 300 | < 300
8 | CCc1ncc(OC)cc1-n1c(C=C(C)C)c(C(=O)N2CCNCC2)cc(-c2nc(-c3ccc(Cl)cc3)cs2)c1=O [Compound 416] | < 300 | < 300
9 | CCc1cccc(CC)c1-n1c(CC(C)C)c(C(=O)N2CCNCC2)cc(-c2ccnc(-c3ccc(Cl)cc3)n2)c1=O [Compound 417] | 300 to 1000 | 300 to 1000
10 | CCc1cccc(CC)c1-n1c(C=C(C)C)c(C(=O)N2CCNCC2)cc(-c2nc(-c3ccc(C(F)(F)F)nc3)cs2)c1=O [Compound 418] | < 300 | < 300
11 | CCc1cccc(CC)c1-n1c(CC(C)C)c(C(=O)N2CCNCC2)cc(-c2nc(-c3ccc(C(=O)N(C)C)cc3)c(C)s2)c1=O [Compound 419] | 1000 to 5000 | 1000 to 5000
12 | CCOc1ccc(C)cc1-n1c(C=C(C)C)c(C(=O)N2CCNCC2)cc(-c2nc(-c3ccc(C(F)(F)F)nc3)cs2)c1=O [Compound 420] | < 300 | < 300
13 | COc1ccc(C(N)=O)cc1-n1c2c(cc(-c3nc(-c4ccc(Cl)cc4)cs3)c1=O)C(=O)CC(C)(C)C2 [Compound 423] | 1000 to 5000 | 1000 to 5000
14 | CCc1ccc(F)cc1-n1c(C=C(C)C)c(C(=O)N2CCNCC2)cc(-c2nc(-c3ccc(C(F)(F)F)nc3)cs2)c1=O [Compound 424] | < 300 | 300 to 1000
15 | CCc1cccc(CC)c1-n1c(C=C(C)C)c(C(=O)N2CCN[C@@H](C)C2)cc(-c2nc(-c3ccc(C(F)(F)F)cc3)cs2)c1=O [Compound 425] | < 300 | < 300
16 | CCc1cccc(CC)c1-n1c(C=C(C)C)c(C(=O)N2CCNC(C(N)=O)C2)cc(-c2nc(-c3ccc(Cl)cc3)cs2)c1=O (stereo not shown) [Compound 426] | < 300 | < 300
17 | CCc1ncc(OC)cc1-n1c(C=C(C)C)c(C(=O)N2CCNCC2)cc(-c2nc(-c3ccc(C(F)F)cc3)cs2)c1=O [Compound 427] | < 300 | 300 to 1000
18 | Cc1cccc(CO)c1-n1c2c(cc(-c3nc(-c4ccc(Cl)cc4)cs3)c1=O)C(=O)CCC2 [Compound 428] | 1000 to 5000 | 1000 to 5000
19 | CC1(C)CC(=O)c2cc(-c3nc(-c4ccc(Cl)cc4)cs3)c(=O)n(-c3cscc3C(N)=O)c2C1 [Compound 429] | 5000 to 20000 | 5000 to 20000
20 | CCc1cccc(CC)c1-n1c(CC(C)C)c(C(=O)N2CCNCC2)cc(-c2nc(-c3ccc(Cl)cc3)c(C(F)(F)F)s2)c1=O [Compound 430] | 300 to 1000 | 300 to 1000
21 | CCc1cccc(CC)c1-n1c(C=C(C)C)c(C(=O)N2CCNC3(CC3)C2)cc(-c2nc(-c3ccc(Cl)cc3)cs2)c1=O [Compound 431] | < 300 | < 300
22 | CCc1cccc(C)c1-n1c(C)c(C(=O)N2CCNCC2)cc(-c2nc(-c3ccc(Cl)cc3)cs2)c1=O [Compound 432] | 300 to 1000 | 1000 to 5000
23 | CCc1cccc(CC)c1-n1c(CC2CCC2)c(C(=O)N2CCNCC2)cc(-c2nc(-c3ccc(Cl)cc3)cs2)c1=O [Compound 433] | < 300 | < 300
24 | CCc1cccc(CC)c1-n1c(C2CCC2)c(C(=O)N2CCNCC2)cc(-c2nc(-c3ccc(Cl)cc3)cs2)c1=O [Compound 434] | 300 to 1000 | < 300

Row | Compound | IC50 (IDH1 R132H) [nM] | IC50 (IDH1 R132C) [nM]
25 | CCc1cccc(CC)c1-n1c(C=C(C)C)c(C(=O)N2CCNCC2)cc(-c2nn(-c3ccc(Cl)cc3)cc2C(F)(F)F)c1=O [Compound 435] | 1000 to 5000 | 5000 to 20000
26 | COc1ccncc1-n1c2c(cc(-c3nc(-c4ccc(Cl)cc4)cs3)c1=O)C(=O)CC(C)(C)C2 [Compound 436] | > 20000 | 5000 to 20000
27 | CC(C)=Cc1c(C(=O)N2CCNCC2)cc(-c2nc(-c3ccc(Cl)cc3)cs2)c(=O)n1-c1ccccc1C [Compound 437] | < 300 | 300 to 1000
28 | COc1ccc(C)cc1-n1c(C=C(C)C)c(C(=O)N2CCNCC2)cc(-c2nc(-c3ccc(Cl)cc3)cs2)c1=O [Compound 438] | < 300 | < 300
29 | Cc1nonc1-n1c2c(cc(-c3nc(-c4ccc(Cl)cc4)cs3)c1=O)C(=O)CC(C)(C)C2 [Compound 439] | > 20000 | 1000 to 5000
30 | CN1CCN(Cc2ccccc2-n2c3c(cc(-c4nc(-c5ccc(Cl)cc5)cs4)c2=O)C(=O)CCC3)CC1 [Compound 440] | 5000 to 20000 | 5000 to 20000
31 | CC1(C)CC(=O)c2cc(-c3nc(-c4ccc(Cl)cc4)cs3)c(=O)n(-c3ccc(Cl)cc3Cl)c2C1 [Compound 441] | > 20000 | 5000 to 20000
32 | CCc1cccc(CC)c1-n1c(C=C(C)C)c(C(=O)N2CCNCC23COC3)cc(-c2nc(-c3ccc(Cl)cc3)cs2)c1=O [Compound 443] | 300 to 1000 | < 300
33 | CCOc1cccc(OCC)c1-n1c2c(cc(-c3nc(-c4ccc(Cl)cc4)cs3)c1=O)C(=O)CCC2 [Compound 444] | 300 to 1000 | 300 to 1000
34 | CN1CCN(Cc2cccc(-n3c4c(cc(-c5nc(-c6ccc(Cl)cc6)cs5)c3=O)C(=O)CC(C)(C)C4)c2)CC1 [Compound 445] | 5000 to 20000 | 5000 to 20000
35 | CCc1cccc(CC)c1-n1c(C2CCOCC2)c(C(=O)N2CCNCC2)cc(-c2nc(-c3ccc(Cl)cc3)cs2)c1=O [Compound 446] | 1000 to 5000 | 300 to 1000
36 | CCc1cccc(CC)c1-n1c(C=C(C)C)c(C(=O)N2C[C@H]3C[C@@H]2CN3)cc(-c2nc(-c3ccc(Cl)cc3)cs2)c1=O [Compound 447] | < 300 | < 300
37 | CCc1cccc(Cl)c1-n1c(C=C(C)C)c(C(=O)N2CCNCC2)cc(-c2nc(-c3ccc(Cl)cc3)cs2)c1=O [Compound 448] | < 300 | < 300
38 | CC(C)=Cc1c(C(=O)N2CCNCC2)cc(-c2nc(-c3ccc(Cl)cc3)cs2)c(=O)n1-c1ccccc1Cl [Compound 449] | < 300 | < 300
39 | Cc1ccc(-n2c3c(cc(-c4nc(-c5ccc(Cl)cc5)cs4)c2=O)C(=O)CCC3)c(C)c1 [Compound 450] | > 20000 | > 20000
40 | O=C1CCCc2c1cc(-c1nc(-c3ccc(Cl)cc3)cs1)c(=O)n2-c1ccccc1C(F)(F)F [Compound 451] | 300 to 1000 | 1000 to 5000
41 | CCc1cccc(CC)c1-n1c(CC(C)C)c(C(=O)N2CCNCC2)cc(-n2ccc(-c3ccc(Cl)cc3)n2)c1=O [Compound 452] | < 300 | < 300
42 | CCc1cccc(CC)c1-n1c(CC(C)C)c(C(=O)N2CCNCC2)cc(-c2nc(-c3ccc(Cl)cc3)c(C(=O)NC)s2)c1=O [Compound 454] | 300 to 1000 | 1000 to 5000
43 | CCc1cccc(CC)c1-n1c(CC2CCCCO2)c(C(=O)N2CCNCC2)cc(-c2nc(-c3ccc(Cl)cc3)cs2)c1=O (stereo not shown) [Compound 455] | 1000 to 5000 | 300 to 1000
44 | CCc1cccc(CC)c1-n1c(C(CC)OC)c(C(=O)N2CCNCC2)cc(-c2nc(-c3ccc(Cl)cc3)cs2)c1=O (stereo not shown) [Compound 456] | 300 to 1000 | 300 to 1000
45 | CCc1cccc(CC)c1-n1c(C2CCCO2)c(C(=O)N2CCNCC2)cc(-c2nc(-c3ccc(Cl)cc3)cs2)c1=O (stereo not shown) [Compound 457] | < 300 | < 300
46 | CCOc1ccc(-n2ccc(-c3cc(C(=O)N4CCNCC4)c(CC(C)C)n(-c4c(CC)cccc4CC)c3=O)n2)cc1 [Compound 458] | < 300 | < 300
47 | CCc1cccc(CC)c1-n1c(C(C)OC)c(C(=O)N2CCNCC2)cc(-c2nc(-c3ccc(Cl)cc3)cs2)c1=O (stereo not shown) [Compound 459] | < 300 | < 300
